Laboratory results: ChEMBL document CHEMBL1136455, “The synthesis and antibacterial activity of 1,3,4-thiadiazole phenyl oxazolidinone analogues” (Bioorg Med Chem Lett, 2003)
In brackets after ≈: the same amount, converted by molar mass.

Legend:
Enterococcus faecalis = assay: In vitro antibacterial activity against vancomycin resistant Enterococcus faecalis UC 9217 (VREA); type: functional
Haemophilus influenzae = assay: In vitro antibacterial activity against ampicillin resistant Haemophilus influenzae 30063 (B-lactamase +); type: functional
Moraxella catarrhalis = assay: In vitro antibacterial activity against Moraxella catarrhalis 30607; type: functional
Mus musculus [1] = assay: In vivo efficacy to protect the Staphylococcus aureus infected mouse and the activity was reported using Linezolid as a control with ED50 = 3.5; type: functional
Staphylococcus aureus [2] = assay: In vitro antibacterial activity against methicillin resistant Staphylococcus aureus UC 12673 (MRSA); type: functional
[3] = system: Staphylococcus epidermidis; assay: In vitro antibacterial activity against methicillin resistant Staphylococcus epidermidis UC 12084; type: functional
Streptococcus pneumoniae = assay: In vitro antibacterial activity against penicillin sensitive Streptococcus pneumoniae UC 9912; type: functional
Staphylococcus aureus [4] = assay: In vitro antibacterial activity against methicillin susceptible Staphylococcus aureus UC 9213 (MSSA); type: functional
Mus musculus [5] = assay: In vivo efficacy to protect the Staphylococcus aureus infected mouse and the activity was reported using Linezolid as a control with ED50 =11.5; type: functional
[6] = Clearance in rat; type: ADME, organism-based; details: in vivo
[7] = Bioavailability in rat; type: ADME, organism-based; details: in vivo
Mus musculus [8] = assay: In vivo efficacy to protect the Staphylococcus aureus infected mouse and the activity was reported using Linezolid as a control with ED50 = 8; type: functional
Mus musculus [9] = assay: In vivo efficacy to protect the Staphylococcus aureus infected mouse and the activity was reported using Linezolid as a control with ED50 = 1.8; type: functional
Mus musculus [10] = assay: In vivo efficacy to protect the Staphylococcus aureus infected mouse and the activity was reported using Linezolid as a control with ED50 = 2.9; type: functional
Mus musculus [11] = assay: In vivo efficacy to protect the Staphylococcus aureus infected mouse and the activity was reported using Linezolid as a control with ED50 = 2.2
Mus musculus [12] = assay: In vivo efficacy to protect the Staphylococcus aureus infected mouse and the activity was reported using Linezolid as a control with ED50 = 3.8; type: functional
Mus musculus [13] = assay: In vivo efficacy to protect the Staphylococcus aureus infected mouse and the activity was reported using Linezolid as a control with ED50 =[…]; type: functional
[14] = system: Staphylococcus epidermidis; assay: In vitro antibacterial activity against methicillin resistant Staphylococcus epidermidis UC 12084; range is 1-2; type: functional

Question: What does the source list for CC(=O)NC[C@H]1CN(c2ccc(-c3nnc(C)s3)c(F)c2)C(=O)O1?
Answer: MIC (Enterococcus faecalis): 0.5 µg/mL (≈ 1.43 µM); MIC (Haemophilus influenzae): 2 µg/mL (≈ 5.71 µM); MIC (Moraxella catarrhalis): 2 µg/mL (≈ 5.71 µM); ED50 (Mus musculus [1]): 6.2 mg/kg; MIC (Staphylococcus aureus [2]): 0.5 µg/mL (≈ 1.43 µM); MIC [3]: < 0.125 µg/mL; MIC (Streptococcus pneumoniae): < 0.125 µg/mL; MIC (Staphylococcus aureus [4]): 1 µg/mL (≈ 2.85 µM)

Question: With CC(=O)NC[C@H]1CN(c2ccc(-c3nnc(CC(N)=O)s3)c(F)c2)C(=O)O1 as the molecule, how does the MIC (Enterococcus faecalis) read?
Answer: The MIC was 2 µg/mL (≈ 5.08 µM).

Question: And the MIC (Haemophilus influenzae)?
Answer: The MIC was 4 µg/mL (≈ 10.2 µM).

Question: What about the MIC (Moraxella catarrhalis) of the same molecule?
Answer: Its MIC is 8 µg/mL (≈ 20.3 µM).

Question: What about the ED50 (Mus musculus [1]) of the same molecule?
Answer: Its ED50 is > 20 mg/kg.

Question: And the MIC (Staphylococcus aureus [2])?
Answer: The MIC was 4 µg/mL (≈ 10.2 µM).

Question: And the MIC [3]?
Answer: The MIC was 0.5 µg/mL (≈ 1.27 µM).

Question: And the MIC (Streptococcus pneumoniae)?
Answer: The MIC was < 0.125 µg/mL.

Question: What about the MIC (Staphylococcus aureus [4]) of the same molecule?
Answer: Its MIC is 4 µg/mL (≈ 10.2 µM).

Question: What does the source list for CC(=O)NC[C@H]1CN(c2ccc(-c3nnc(CN)s3)c(F)c2)C(=O)O1?
Answer: MIC (Enterococcus faecalis): 1 µg/mL (≈ 2.74 µM); MIC (Haemophilus influenzae): 2 µg/mL (≈ 5.47 µM); MIC (Moraxella catarrhalis): 2 µg/mL (≈ 5.47 µM); ED50 (Mus musculus [5]): 21.3 mg/kg; MIC (Staphylococcus aureus [2]): 4 µg/mL (≈ 10.9 µM); MIC [3]: 1 µg/mL (≈ 2.74 µM); MIC (Streptococcus pneumoniae): < 0.125 µg/mL; MIC (Staphylococcus aureus [4]): 8 µg/mL (≈ 21.9 µM)

Question: With CNCc1nnc(-c2ccc(N3C[C@H](CNC(C)=O)OC3=O)cc2F)s1 as the molecule, how does the MIC (Enterococcus faecalis) read?
Answer: The MIC was 2 µg/mL (≈ 5.27 µM).

Question: And the MIC (Haemophilus influenzae)?
Answer: Its MIC is 4 µg/mL (≈ 10.5 µM).

Question: And the MIC (Moraxella catarrhalis)?
Answer: Its MIC is 4 µg/mL (≈ 10.5 µM).

Question: What about the MIC (Staphylococcus aureus [2]) of the same molecule?
Answer: Its MIC is 4 µg/mL (≈ 10.5 µM).

Question: And the MIC [3]?
Answer: Its MIC is 1 µg/mL (≈ 2.64 µM).

Question: And the MIC (Streptococcus pneumoniae)?
Answer: Its MIC is < 0.5 µg/mL.

Question: What about the MIC (Staphylococcus aureus [4]) of the same molecule?
Answer: Its MIC is 4 µg/mL (≈ 10.5 µM).

Question: Which clearance [6] does the source give for C/C(S)=N/C[C@H]1CN(c2ccc(-c3nnc(CN)s3)c(F)c2)C(=O)O1 here?
Answer: The clearance was 34.3 mL/min/kg.

Question: What about the bioavailability [7] of the same molecule?
Answer: Its bioavailability is 14%.

Question: And the MIC (Enterococcus faecalis)?
Answer: Its MIC is < 0.5 µg/mL.

Question: And the MIC (Haemophilus influenzae)?
Answer: The MIC was < 0.5 µg/mL.

Question: And the MIC (Moraxella catarrhalis)?
Answer: Its MIC is < 0.5 µg/mL.

Question: What about the ED50 (Mus musculus [8]) of the same molecule?
Answer: Its ED50 is > 20 mg/kg.

Question: And the MIC [3]?
Answer: The MIC was < 0.5 µg/mL.

Question: And the MIC (Streptococcus pneumoniae)?
Answer: The MIC was < 0.5 µg/mL.

Question: And the MIC (Staphylococcus aureus [4])?
Answer: The MIC was < 0.5 µg/mL.

Question: For CC(=O)NC[C@H]1CN(c2ccc(-c3nncs3)c(F)c2)C(=O)O1, which MIC (Enterococcus faecalis) is on record?
Answer: The MIC was 1 µg/mL (≈ 2.97 µM).

Question: And the MIC (Haemophilus influenzae)?
Answer: The MIC was 4 µg/mL (≈ 11.9 µM).

Question: And the MIC (Moraxella catarrhalis)?
Answer: Its MIC is 4 µg/mL (≈ 11.9 µM).

Question: And the ED50 (Mus musculus [9])?
Answer: The ED50 was 2.2 mg/kg.

Question: What about the MIC (Staphylococcus aureus [2]) of the same molecule?
Answer: The MIC was 1 µg/mL (≈ 2.97 µM).

Question: And the MIC [3]?
Answer: Its MIC is 0.25 µg/mL (≈ 0.743 µM).

Question: And the MIC (Streptococcus pneumoniae)?
Answer: The MIC was 0.25 µg/mL (≈ 0.743 µM).

Question: And the MIC (Staphylococcus aureus [4])?
Answer: The MIC was 1 µg/mL (≈ 2.97 µM).

Question: What does the source list for CC(=O)NC[C@H]1CN(c2ccc(-c3nnc(CC#N)s3)c(F)c2)C(=O)O1?
Answer: MIC (Enterococcus faecalis): 1 µg/mL (≈ 2.66 µM); MIC (Haemophilus influenzae): 4 µg/mL (≈ 10.7 µM); MIC (Moraxella catarrhalis): 4 µg/mL (≈ 10.7 µM); ED50 (Mus musculus [10]): > 20 mg/kg; MIC (Staphylococcus aureus [2]): 1 µg/mL (≈ 2.66 µM); MIC [3]: 0.25 µg/mL (≈ 0.666 µM); MIC (Streptococcus pneumoniae): 0.25 µg/mL (≈ 0.666 µM); MIC (Staphylococcus aureus [4]): 2 µg/mL (≈ 5.33 µM)

Question: With CC(=O)CCc1nnc(-c2ccc(N3C[C@H](CNC(C)=O)OC3=O)cc2F)s1 as the molecule, how does the MIC (Enterococcus faecalis) read?
Answer: Its MIC is 0.5 µg/mL (≈ 1.23 µM).

Question: What about the MIC (Haemophilus influenzae) of the same molecule?
Answer: The MIC was 4 µg/mL (≈ 9.84 µM).

Question: What about the MIC (Moraxella catarrhalis) of the same molecule?
Answer: The MIC was 4 µg/mL (≈ 9.84 µM).

Question: What about the MIC (Staphylococcus aureus [2]) of the same molecule?
Answer: The MIC was 1 µg/mL (≈ 2.46 µM).

Question: And the MIC [3]?
Answer: The MIC was 0.25 µg/mL (≈ 0.615 µM).

Question: What about the MIC (Streptococcus pneumoniae) of the same molecule?
Answer: The MIC was < 0.125 µg/mL.

Question: What about the MIC (Staphylococcus aureus [4]) of the same molecule?
Answer: Its MIC is 1 µg/mL (≈ 2.46 µM).

Question: What about the ED50 (Mus musculus [11]) of the same molecule?
Answer: The ED50 was 7.6 mg/kg.

Question: Which results are given for CCc1nnc(-c2ccc(N3C[C@H](CNC(C)=O)OC3=O)cc2F)s1?
Answer: MIC (Enterococcus faecalis): 0.5 µg/mL (≈ 1.37 µM); MIC (Haemophilus influenzae): 4 µg/mL (≈ 11 µM); MIC (Moraxella catarrhalis): 2 µg/mL (≈ 5.49 µM); ED50 (Mus musculus [12]): 9.2 mg/kg; MIC (Staphylococcus aureus [2]): 0.5 µg/mL (≈ 1.37 µM); MIC [3]: 0.25 µg/mL (≈ 0.686 µM); MIC (Streptococcus pneumoniae): 0.25 µg/mL (≈ 0.686 µM); MIC (Staphylococcus aureus [4]): 1 µg/mL (≈ 2.74 µM)

Question: What does the source list for CC(=O)NC[C@H]1CN(c2ccc(-c3nnc(C[S+](C)[O-])s3)c(F)c2)C(=O)O1 (stereo not given in full)?
Answer: MIC (Enterococcus faecalis): 4 µg/mL (≈ 9.7 µM); MIC (Haemophilus influenzae): 8 µg/mL (≈ 19.4 µM); MIC (Moraxella catarrhalis): 8 µg/mL (≈ 19.4 µM); MIC (Staphylococcus aureus [2]): 8 µg/mL (≈ 19.4 µM); MIC [3]: 0.5 µg/mL (≈ 1.21 µM); MIC (Streptococcus pneumoniae): 0.25 µg/mL (≈ 0.606 µM); MIC (Staphylococcus aureus [4]): 8 µg/mL (≈ 19.4 µM)

Question: Which MIC (Enterococcus faecalis) does the source give for CC(=O)NC[C@H]1CN(c2ccc(-c3nnc(C(N)=O)s3)c(F)c2)C(=O)O1 here?
Answer: The MIC was 1 µg/mL (≈ 2.64 µM).

Question: What about the MIC (Haemophilus influenzae) of the same molecule?
Answer: The MIC was 16 µg/mL (≈ 42.2 µM).

Question: And the MIC (Moraxella catarrhalis)?
Answer: The MIC was 4 µg/mL (≈ 10.5 µM).

Question: What about the ED50 (Mus musculus [13]) of the same molecule?
Answer: The ED50 was 12.4 mg/kg.

Question: What about the MIC (Staphylococcus aureus [2]) of the same molecule?
Answer: Its MIC is 0.5 µg/mL (≈ 1.32 µM).

Question: And the MIC [3]?
Answer: Its MIC is 0.25 µg/mL (≈ 0.659 µM).

Question: And the MIC (Streptococcus pneumoniae)?
Answer: The MIC was 0.25 µg/mL (≈ 0.659 µM).

Question: What about the MIC (Staphylococcus aureus [4]) of the same molecule?
Answer: The MIC was 0.5 µg/mL (≈ 1.32 µM).

Question: Which MIC (Haemophilus influenzae) does the source give for CC(=O)NC[C@H]1CN(c2ccc(N3CCOCC3)c(F)c2)C(=O)O1 [LINEZOLID] here?
Answer: Its MIC is 16 µg/mL (≈ 47.4 µM).

Question: What about the MIC (Moraxella catarrhalis) of the same molecule?
Answer: The MIC was 8 µg/mL (≈ 23.7 µM).

Question: And the MIC [14]?
Answer: Its MIC is 1 µg/mL (≈ 2.96 µM).
